Experimental data: patent US20130089591A1, “Compositions” (Givaudan SA, priority 2010, published 2013)

Columns and labels:
[1] = Aggregation of polyurea capsules, Method 5.5; assay type: physicochemical; parameters: key: ∘: no aggregation of the capsules; +: aggregation of few capsules together only visible under microscopy; ++: aggregates of mm size; +++: important aggregation; ++++: aggregation is such that a cake is obtained; conditions: polyurea Method 5.5, phase A of Table 1; for Encapsulation, No precursor (scale of aggregation): free aldehyde as phase B; for Encapsulation, With precursor (scale of aggregation): precursor (Method 1.1) as phase B
Protocol: An oil phase was prepared when Desmodur W and Desmodur N3300 (Bayer) were added in perfume oil at a level of 2.2% and 13% respectively.
An aqueous phase (Solution S1) was prepared when Gantrez AN119 (ISP) was added to water, at a level of 1.6%. The solution was heated at 70° C. for 10 min to disperse the polymer.
An aqueous phase (Solution S2) was prepared when Ethylene diamine (Merck) was added to water, at a level of 7.5%.
30 g of the oil phase was mixed with 80 g of solution S1, to form an oil-in-water emulsion, in a 250 mL vessel equipped with a propeller operating at 1000 rpm.
After 10 min of stirring, 20 g of solution S2 was added.
The slurry was stirred for 30 min at room temperature, then heated to 60° C. and stirred for 3 H at 60° C. before cooling.
The Method 5.5 of Example 5 was applied to encapsulate different perfume oils described as phase A (non aldehyde raw materials) and phase B (aldehyde raw materials).
The composition of Phase A was described in Table 1 above. Phase B is an aldehyde perfume molecule used as such or as its precursor form prepared according to Method 1.1.
According to the aspect of the slurry a scale of aggregation was defined as follow: […]
(§1) ∘ no aggregation of the capsules + aggregation of few capsules together only visible under microscopy ++ aggregates of mm size +++ important aggregation ++++ aggregation is such that a cake is obtained
Phase B was added at a level of 20% of aldehyde in phase A.

[2] = Aggregation of polyurea capsules, Method 5.1; assay type: physicochemical; conditions: for Encapsulation (aggregation): free aldehyde at 5% in IPM
Protocol: An oil phase was prepared by adding Desmodur W (Isocyanate from Bayer) to a perfume oil at a level of 16.6%.
An aqueous phase (solution S1) was prepared by adding Luviskol k90 (BASF) to water, at a level of 4.5%. The pH of the solution was adjusted to 11.5 by addition of NaOH at 10%.
An aqueous phase (Solution S2) was prepared when Lupasol PR8515 (BASF) was added to water, at a level of 10%.
300 g of the oil phase was mixed with 500 g of solution S1, to form an oil-in-water emulsion, in a 1 L reactor equipped with a MIG stirrer operating at 1000 rpm.
After 30 minutes of mixing, 200 g of solution S2 was added over a period of 1 minute.
After 30 minutes, the slurry was heated up to 70° C. (1 H), then kept for 2 H at 70° C., then heated to 80° C. and kept for 1 H at 80° C., then heated to 85° C. and kept for 1 H at 85° C., then cooled to 70° C. and kept for 1 H at 70° C. before final cooling at 25° C.
The Method 5.1 of Example 5 was applied to encapsulate different perfume oils described as phase A (non aldehyde raw materials) and phase B (aldehyde raw materials).
In the following trials, phase A was IPM and phase B was aldehyde perfume molecules. Phase B was added at a level of 5% in phase A.
Phase B contains aldehyde C11 iso or the corresponding precursor prepared according to Method 1.1.
Phase B was added at a level of 5% in phase A.

[3] = Water solubility of the aldehyde
[4] = Aggregation of polyurea capsules, Method 5.6; assay type: physicochemical; parameters: key: ∘: no aggregation of the capsules; +: aggregation of few capsules together only visible under microscopy; ++: aggregates of mm size; +++: important aggregation; ++++: aggregation is such that a cake is obtained; conditions: polyurea Method 5.6, phase A of Table 1; for Encapsulation, No precursor (scale of aggregation): free aldehyde as phase B; for Encapsulation, With precursor (scale of aggregation): precursor (Method 1.1) as phase B
Protocol: An oil phase was prepared when Desmodur VL R20 (Bayer) was added in perfume oil at a level of 2.5%.
An aqueous phase (Solution S1) was prepared when Mowiol 4-88 (Kururay) was added in water, at a level of 0.1%.
An aqueous phase (Solution S2) was prepared when diethylentriamine (Merck) was added in water, at a level of 2%.
100 g of oil phase was mixed with 250 g of solution S1, to form an oil-in-water emulsion, in a 500 mL vessel equipped with a propeller operating at 1000 rpm.
After 10 min of stirring, 50 g of solution S2 was added.
The slurry was stirred for 4 h at room temperature.
The Method 5.6 of Example 5 was applied to encapsulate different perfume oils described as phase A (non aldehyde raw materials) and phase B (aldehyde raw materials).
The composition of Phase A is described in Table 1. Phase B is an aldehyde perfume molecule used as such or as its precursor form prepared according to Method 1.1.
According to the aspect of the slurry a scale of aggregation has been defined as follow: […]
as §1

[5] = Aggregation of polyamide capsules (Example 2 method); assay type: physicochemical; parameters: key to Encapsulation, No precursor (scale of aggregation) / Encapsulation, With precursor (scale of aggregation): ∘: no aggregation of the capsules; +: aggregation of few capsules together only visible under microscopy; ++: aggregates of mm size; +++: important aggregation; ++++: aggregation is such that a cake is obtained; conditions: for Encapsulation, No precursor (scale of aggregation): free aldehyde as phase B at 5% in phase A of Table 1; for Encapsulation, With precursor (scale of aggregation): precursor of the aldehyde (Method 1.1) as phase B at 5% in phase A of Table 1
Protocol: An oil phase was prepared by dissolving isophtahaloyl dichloride (Fluka) in oil (oil composition specified in the examples below) at a level of 10%
An aqueous solution (Solution S1) was prepared by dissolving a polyvinyl alcohol Mowiol 4-88 (Kuru ray) in water at a level of 1%.
An aqueous solution (Solution S2) was prepared when triethylentetraamine (Hunstman) was diluted in water at a level of 3%.
100 g of the oil phase was mixed with 450 g of solution S1 to form an oil-in-water emulsion in a 1 L reactor equipped with a MIG stirrer operating at 1000 rpm. After 5 minutes of mixing, 450 g of solution S2 was slowly added. The resultant slurry of polyamide capsules was kept under stirring for 2 H.
Two capsule populations were formed. A first encapsulating IPM (isopropyl myristate) and a second containing IPM+5% of ethyl vaniline. The capsules were made according to the method of Example 2.
The methodology of Example 2 was applied to encapsulate different perfume oils described as phase A (non aldehyde raw materials) and phase B (aldehyde raw materials).
The phase B was added at 5% to the phase A prior to encapsulation. Different compositions of phase B have been used corresponding each time to a single aldehyde perfume molecule or to its precursor formed according to the methodology of Method 1.1, above.
According to the condition of the slurry a scale of aggregation has been defined as follows: […]
as §1

Molecule	Water solubility ([3]; Table of Example 13) [ppm]	Encapsulation, No precursor (scale of aggregation) [4]	Encapsulation, With precursor (scale of aggregation) [4]	further results
CC(CC=O)CCCC(C)(C)O (stereo not drawn) [Hydroxycitronellal]	1800	+++	∘	Encapsulation, No precursor (scale of aggregation) [1]: ++++; Encapsulation, With precursor (scale of aggregation) [1]: ∘; Encapsulation (aggregation) [2]: Aggregation; Water solubility ([3]; Table 3): 1800 ppm; Water solubility ([3]; Table of Example 11): 1800 ppm
CCCCCCCCCCCC=O [Aldehyde C12 laurique]		++++	∘	Encapsulation, No precursor (scale of aggregation) [1]: ++; Encapsulation, With precursor (scale of aggregation) [1]: ∘; Encapsulation (aggregation) [2]: Aggregation; Encapsulation, No precursor (scale of aggregation) [5]: +++; Encapsulation, With precursor (scale of aggregation) [5]: ∘
CC(CC=O)CCc1ccccc1 (stereo not drawn) [Mefranal]	100	∘	∘	
CCCCCC/C(C=O)=C\c1ccccc1 [Hexyl cinnamic ald]	2	+	∘	
CC(C)(O)CCCC1=CCC(C=O)CC1 (stereo not drawn) [Cyclohexal]		∘	∘	
CC1(C)CCCC2=C1CC(C=O)CC2 (stereo not drawn) [Cyclomyral]		∘	∘	
CC(C)c1ccc(C=O)cc1 [Cuminic ald]	280	++	∘	
CCCCCCCCCC(C)C=O (stereo not drawn) [Aldehyde C12 mna]		∘	∘	Encapsulation, No precursor (scale of aggregation) [1]: ∘; Encapsulation, With precursor (scale of aggregation) [1]: ∘; Encapsulation, No precursor (scale of aggregation) [5]: ++; Encapsulation, With precursor (scale of aggregation) [5]: ∘
CC(C)c1cccc(C(C)CC=O)c1 (stereo not drawn) [Florhydral]				Encapsulation (aggregation) [2]: Aggregation; Water solubility ([3]; Table 3): 51 ppm
CC(CC=O)CC(C)(C)C (stereo not drawn) [Ald C9 isononylic]	160	+++	∘	
O=C/C=C/c1ccccc1 [Cinnamic ald]	1900	+	∘	
CCCCCCCCCC=O [Aldehyde C10]	61	++++	∘	Encapsulation, No precursor (scale of aggregation) [1]: +++; Encapsulation, With precursor (scale of aggregation) [1]: ∘; Encapsulation (aggregation) [2]: Aggregation; Water solubility ([3]; Table 2): 61 ppm; Water solubility ([3]; Table 3): 61 ppm; Water solubility ([3]; Table of Example 11): 61 ppm; Encapsulation, No precursor (scale of aggregation) [5]: +++; Encapsulation, With precursor (scale of aggregation) [5]: +
COC1CC2CC1C1CC(C=O)CC21 (stereo not drawn) [Scentenal]		++	∘	
C/C(C=O)=C\c1ccccc1 [Methyl cinnamic ald]	580	∘	∘	
CCCCCC=O [Capronaldehyde (hexanal)]		++++	∘	
CC(C)=CCCC(C)C=O (stereo not drawn) [Melonal, 2,6-dimethyl-5-heptenal]	344	++++	∘	
Aldehyde iso C11				Slurry aspect ([2]; phase B at 5% in phase A of Table 4, listed as Aldehyde C11 iso): Cake; Slurry aspect ([2]; phase B at 5% in phase A of Table 4, listed as aldehyde C11 iso): aggregate; Water solubility ([3]; Table 2): 30 ppm; Encapsulation, No precursor (scale of aggregation) [5]: +++; Encapsulation, With precursor (scale of aggregation) [5]: +
CC1(C)C2CC=C(CCC=O)C1C2 (stereo not drawn) [Pino acetaldehyde]	86	++++	∘	
COc1ccc(C=O)cc1 [Aubepine para cresol]				Water solubility ([3]; Table 2): 6 ppm; Encapsulation, No precursor (scale of aggregation) [5]: ++; Encapsulation, With precursor (scale of aggregation) [5]: ∘
CCOc1cc(C=O)ccc1O [ethyl vaniline]				Aggregation, microscopic examination ([5]; IPM + 5% aldehyde): significant aggregation
CC(C=O)c1ccccc1 (stereo not drawn) [Hydratropic ald]	650	+	+	
